In patent US6812237B2, “N-substituted peptidyl nitriles as cysteine cathepsin inhibitors” (Novartis AG, priority 2000, dated 2004) one finds melting point and IC50 data, which are given here for four molecules.

Data set [1] deals with recombinant human cathepsin B (Homo sapiens, UniProt P07858). The data set can be described thus: in vitro cathepsin B assay. It is filed as biochemical. To be noted: Z-Arg-Arg-AMC substrate, pH 5.8 phosphate buffer, fluorescence at 20 minutes. How it is done:
The cathepsin inhibitory effects of the compound of the invention can be determined in vitro by measuring the inhibition of e.g. recombinant human cathepsins B, L and S. The buffer used in the assays is a 0.1 M pH 5.8 phosphate buffer containing EDTA (1.33 mM), DTT (2.7 mM) and Brij (0.03%).
The in vitro assays are carried out as follows:
To a microtiter well is added 100 uL of a 20 uM solution of inhibitor in assay buffer followed by 50 uL of a 6.4 mM solution of Z—Arg—Arg—AMC substrate (Peptides International) in assay buffer. After mixing, 50 uL of a 0.544 nM solution of recombinant human cathepsin B in assay buffer is added to the well, yielding a final inhibitor concentration of 10 uM. Enzyme activity is determined by measuring fluorescence of the liberated aminomethylcoumarin at […] using 380 nm excitation, at 20 minutes. % Enzyme inhibition is determined by comparison of this activity to that of a solution containing no inhibitor. Compounds are subsequently subjected to a dose response curve analysis to determine IC50 values.

In turn, `N#C[C@@H](COCc1cccc(C(=O)O)c1)NC(=O)C1(Nc2ccccc2)CCCCC1` [Example 14 (a), N-[2-(3-carboxybenzyloxy)-1-(S)-cyanoethyl]-1-(phenylamino)-cyclohexanecarboxamide] registered a melting point of 80 to 83 °C. On the same count and under the same terms, as for `N#CCNC(=O)CN(c1ccccc1)C1Cc2ccccc2C1` [Example 14 (b), N-(cyanomethyl)-Nα-(phenyl)-indan-2-yl-glycine-amide], the figure is 169 to 170 °C. Regarding `Cc1cccc(C[C@H](Nc2ccccc2)C(=O)NC(C#N)COCc2cccc(C(=O)O)c2)c1` (stereo in doubt) [Example 6, N-[2-(3-Carboxy-benzyloxy)-1(S)-cyanoethyl]-3-methyl-Nα-phenyl-L-phenylalaninamide], the melting point lay within 135 to 137 °C. Further, the half-inhibitory concentration (IC50) in data set [1] was around 100 nM. On to `C=CCOC(=O)c1cccc(COCC(C#N)NC(=O)[C@H](Cc2cccc(C)c2)Nc2ccc(F)cc2)c1` (stereo in doubt) [Example 5, N-[2-[3-(allyloxycarbonyl)-benzyloxy]-1(S)-cyanoethyl]-3-methyl-Nα-(4-fluorophenyl)-L-phenylalaninamide], for which the melting point fell in the range of 86 to 88 °C.

Broadly, the melting point is the temperature, or range, at which the solid turns liquid. As a reminder, the IC50 is the concentration needed to halve the response being measured.
